Assay results reported in patent EP4740948A1 (Dong Wha Pharm. Co., Ltd., priority 2023, dated 2025).

Tests used:
[1] = tested on: NCI-H1299 cells; assay: Cancer cell proliferation inhibition (Cell Counting Kit-8), lung cancer cell line; type: cell-based; details: Homo sapiens, NCI-H1299, 264 h, 1000 nM, cultured seven to 11 days; read-out: % inhibition rate NCI-H129 9
Summary of the method: (§1)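 Single-concentration test: 1000 nM compound, 7-11 day culture after seeding 100 to 1,000 cells per well in 10% FBS medium. Percent inhibition derived from Cell Counting Kit-8 signal relative to untreated control.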

[2] = tested on: G401 cells; assay: Cancer cell proliferation inhibition (Cell Counting Kit-8), rhabdoid tumor cell line; type: cell-based; details: Homo sapiens, G-401, 264 h, 1000 nM, cultured seven to 11 days; read-out: % inhibition rate G401
Summary of the method: (§2)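 Single 1000 nM dose of test substance, applied to cells seeded at 100–1,000 per well in 10% FBS medium, then culture for seven to 11 days. CCK-8 read-out; inhibition rate expressed as percent relative to untreated control.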

[3] = tested on: MIA-PaCa-2 cells; assay: Cancer cell proliferation inhibition (Cell Counting Kit-8), pancreatic cancer cell line; type: cell-based; details: Homo sapiens, MIA PaCa-2, 264 h, 1000 nM, cultured seven to 11 days; read-out: % inhibition rate MIA-Paca2
Summary of the method: as §1

[4] = tested on: Lovo cells; assay: Cancer cell proliferation inhibition (Cell Counting Kit-8), colorectal cancer cell line; type: cell-based; details: Homo sapiens, LoVo, 264 h, 1000 nM, cultured seven to 11 days; read-out: % inhibition rate LoVo
Summary of the method: as §1

[5] = target: EZH1 (Homo sapiens, UniProt Q92800); assay: AlphaLISA enzyme activity inhibition, EZH1; type: biochemical; details: for inhibition at 0.005 µM: 5nM test substance; for inhibition at 0.01 µM: 10nM test substance
Sequence of EZH1 (Q92800 whole entry, species assumed): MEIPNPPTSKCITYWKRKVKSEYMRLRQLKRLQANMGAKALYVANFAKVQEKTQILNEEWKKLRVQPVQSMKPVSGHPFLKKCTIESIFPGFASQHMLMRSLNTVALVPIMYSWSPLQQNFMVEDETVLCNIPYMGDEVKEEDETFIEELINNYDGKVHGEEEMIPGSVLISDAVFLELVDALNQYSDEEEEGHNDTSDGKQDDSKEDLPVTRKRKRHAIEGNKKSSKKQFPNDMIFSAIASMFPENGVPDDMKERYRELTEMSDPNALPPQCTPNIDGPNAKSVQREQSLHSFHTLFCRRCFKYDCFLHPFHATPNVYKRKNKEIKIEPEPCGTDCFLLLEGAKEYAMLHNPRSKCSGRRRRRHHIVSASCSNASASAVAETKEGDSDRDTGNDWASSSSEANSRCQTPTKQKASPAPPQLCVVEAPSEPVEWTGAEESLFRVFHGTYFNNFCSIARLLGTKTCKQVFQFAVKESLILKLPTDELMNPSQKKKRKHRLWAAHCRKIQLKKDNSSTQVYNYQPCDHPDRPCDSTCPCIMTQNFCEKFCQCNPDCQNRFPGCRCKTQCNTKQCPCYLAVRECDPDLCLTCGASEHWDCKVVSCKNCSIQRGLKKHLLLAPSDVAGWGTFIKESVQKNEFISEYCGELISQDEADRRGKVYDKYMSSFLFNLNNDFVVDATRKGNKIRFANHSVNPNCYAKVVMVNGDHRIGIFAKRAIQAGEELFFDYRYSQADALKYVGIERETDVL
Sequence of EZH1 (O75530 whole entry partner, species assumed): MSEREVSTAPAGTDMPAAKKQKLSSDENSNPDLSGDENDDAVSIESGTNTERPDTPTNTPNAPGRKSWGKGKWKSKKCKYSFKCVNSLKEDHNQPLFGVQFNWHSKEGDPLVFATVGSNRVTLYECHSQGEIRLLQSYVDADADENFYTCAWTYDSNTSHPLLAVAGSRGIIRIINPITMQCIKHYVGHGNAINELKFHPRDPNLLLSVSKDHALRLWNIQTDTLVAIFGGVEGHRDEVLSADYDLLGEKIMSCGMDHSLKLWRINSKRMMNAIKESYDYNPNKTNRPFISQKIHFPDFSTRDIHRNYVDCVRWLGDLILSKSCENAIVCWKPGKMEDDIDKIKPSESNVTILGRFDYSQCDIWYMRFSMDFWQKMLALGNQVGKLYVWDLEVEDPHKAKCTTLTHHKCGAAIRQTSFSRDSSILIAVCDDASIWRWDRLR
Sequence of EZH1 (Q15022 whole entry partner, species assumed): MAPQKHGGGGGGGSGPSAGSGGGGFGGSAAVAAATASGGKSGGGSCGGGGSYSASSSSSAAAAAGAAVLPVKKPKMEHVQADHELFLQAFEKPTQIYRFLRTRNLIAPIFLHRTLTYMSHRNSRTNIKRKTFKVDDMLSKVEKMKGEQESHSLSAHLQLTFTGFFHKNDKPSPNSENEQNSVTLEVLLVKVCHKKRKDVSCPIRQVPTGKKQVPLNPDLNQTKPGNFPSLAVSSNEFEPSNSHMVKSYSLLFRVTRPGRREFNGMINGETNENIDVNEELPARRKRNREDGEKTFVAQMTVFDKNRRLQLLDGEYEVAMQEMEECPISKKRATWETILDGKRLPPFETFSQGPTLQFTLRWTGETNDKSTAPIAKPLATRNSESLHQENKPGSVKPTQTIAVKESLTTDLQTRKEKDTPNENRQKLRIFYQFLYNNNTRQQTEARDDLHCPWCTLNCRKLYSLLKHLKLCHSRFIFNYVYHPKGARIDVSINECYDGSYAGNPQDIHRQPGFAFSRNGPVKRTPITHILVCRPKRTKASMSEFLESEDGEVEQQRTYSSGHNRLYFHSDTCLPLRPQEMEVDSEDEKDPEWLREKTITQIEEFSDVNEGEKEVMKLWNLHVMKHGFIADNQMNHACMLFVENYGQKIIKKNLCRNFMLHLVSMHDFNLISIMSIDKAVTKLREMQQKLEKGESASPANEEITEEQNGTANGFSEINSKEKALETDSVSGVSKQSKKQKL
Summary of the method: (§3)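 Enzyme inhibition rate was calculated relative to DMSO from AlphaLISA signal, with acceptor beads added after a 2 h methylation reaction and donor beads 1 h later. Each enzyme, EZH1 or EZH2, was pre-mixed with compound (final 5 nM or 10 nM) in Tris buffer pH 8.0 before histone H3 peptide and SAM initiated the reaction.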

[6] = tested on: SW-13 cells; assay: Cancer cell proliferation inhibition (Cell Counting Kit-8), adrenal cancer cell line; type: cell-based; details: Homo sapiens, SW13, 264 h, 1000 nM, cultured seven to 11 days; read-out: % inhibition rate SW-13
Summary of the method: as §1

[7] = target: EZH2 (Homo sapiens, UniProt Q15910); assay: AlphaLISA enzyme activity inhibition, EZH2; type: biochemical; details: for inhibition at 0.005 µM: 5nM test substance; for inhibition at 0.01 µM: 10nM test substance
Sequence of EZH2 (Q15910 whole entry, species assumed): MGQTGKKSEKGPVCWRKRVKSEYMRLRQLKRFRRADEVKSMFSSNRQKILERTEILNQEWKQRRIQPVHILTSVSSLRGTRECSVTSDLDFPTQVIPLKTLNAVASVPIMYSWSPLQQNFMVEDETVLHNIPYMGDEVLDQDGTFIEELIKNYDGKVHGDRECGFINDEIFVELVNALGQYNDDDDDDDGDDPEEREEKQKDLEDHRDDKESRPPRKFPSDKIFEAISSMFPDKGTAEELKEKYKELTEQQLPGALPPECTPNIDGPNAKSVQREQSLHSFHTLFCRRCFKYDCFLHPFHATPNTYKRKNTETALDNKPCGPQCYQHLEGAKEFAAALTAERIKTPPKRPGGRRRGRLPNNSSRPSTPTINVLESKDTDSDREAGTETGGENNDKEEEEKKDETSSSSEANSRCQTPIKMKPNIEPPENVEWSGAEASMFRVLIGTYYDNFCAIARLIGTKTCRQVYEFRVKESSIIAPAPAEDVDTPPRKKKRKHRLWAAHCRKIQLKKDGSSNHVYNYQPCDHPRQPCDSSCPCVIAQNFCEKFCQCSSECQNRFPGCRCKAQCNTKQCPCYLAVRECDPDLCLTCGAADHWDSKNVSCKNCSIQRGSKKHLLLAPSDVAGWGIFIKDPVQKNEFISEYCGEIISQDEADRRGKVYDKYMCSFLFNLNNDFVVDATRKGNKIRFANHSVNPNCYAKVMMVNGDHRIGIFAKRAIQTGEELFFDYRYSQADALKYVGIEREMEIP
Sequence of EZH2 (O75530 whole entry partner, species assumed): as the sequence (O75530 whole entry partner, species assumed) above
Sequence of EZH2 (Q15022 whole entry partner, species assumed): as the sequence (Q15022 whole entry partner, species assumed) above
Summary of the method: as §3

[8] = tested on: MKN-45 cells; assay: Cancer cell proliferation inhibition (Cell Counting Kit-8), gastric cancer cell line; type: cell-based; details: Homo sapiens, MKN-45, 264 h, 1000 nM, cultured seven to 11 days; read-out: % inhibition rate MKN -45
Summary of the method: as §2

inhibition at 0.005 µM [5] | inhibition at 0.01 µM [5] | inhibition at 0.005 µM [7] | inhibition at 0.01 µM [7] | Compound | inhibition at 1 µM [1] | inhibition at 1 µM [2] | inhibition at 1 µM [3] | inhibition at 1 µM [4] | inhibition at 1 µM [6] | inhibition at 1 µM [8]
61.3% | 86% | 79% | 99.7% | CCN1CCN(c2ncc(-c3cc(C(=O)NCc4c(SC)cc(C)[nH]c4=O)c(C)c4c3OC(C)(C3CCN(CC(F)(F)F)CC3)O4)cn2)CC1 (stereo not drawn) [Compound 75, 7-(2-(4-ethylpiperazin-1-yl)pyrimidin-5-yl)-2,4-dimethyl-N-((6-methyl-4-(methylthio)-2-oxo-1,2-dihydropyridin-3-yl)methyl)-2-(1-(2,2,2-trifluoroethyl)piperidin-4-yl)benzo[d][1,3]dioxole-5-carboxamide] | ≤ 30% | ≥ 70% | ≤ 30% | ≥ 70% | 30 to 70% | 30 to 70%
53.1% | 79.3% | 86.1% | 98.1% | CCN(C)c1ncc(-c2cc(C(=O)NCc3c(SC)cc(C)[nH]c3=O)c(C)c3c2OC(C)(C2CCN(CC(F)(F)F)CC2)O3)cn1 (stereo not drawn) [Compound 78] | ≤ 30% | ≥ 70% | ≤ 30% | ≥ 70% | ≤ 30% | 30 to 70%
20.2% | 16.2% | 60.1% | 82.3% | CSc1cc(C)[nH]c(=O)c1CNC(=O)c1cc(-c2ccc(N3CCCCC3)cc2)c2c(c1C)OC(C)(C1CCN(CC(F)(F)F)CC1)O2 (stereo not drawn) [Compound 90, 2,4-dimethyl-N-((6-methyl-4-(methylthio)-2-oxo-1,2-dihydropyridin-3-yl)methyl)-7-(4-(piperidin-1-yl)phenyl)-2-(1-(2,2,2-trifluoroethyl)piperidin-4-yl)benzo[d][1,3]dioxole-5-carboxamide] | ≤ 30% | 30 to 70% | ≤ 30% | ≥ 70% | ≤ 30% | ≤ 30%
24.5% | 41% | 47.4% | 71.6% | CSc1cc(C)[nH]c(=O)c1CNC(=O)c1cc(-c2ccc(N3CCCCC3)nc2)c2c(c1C)OC(C)(C1CCN(CC(F)(F)F)CC1)O2 (stereo not drawn) [Compound 91, 2,4-dimethyl-N-((6-methyl-4-(methylthio)-2-oxo-1,2-dihydropyridin-3-yl)methyl)-7-(6-(piperidin-1-yl)pyridin-3-yl)-2-(1-(2,2,2-trifluoroethyl)piperidin-4-yl)benzo[d][1,3]dioxole-5-carboxamide] | ≤ 30% | 30 to 70% | ≤ 30% | ≥ 70% | ≤ 30% | ≤ 30%
27.2% | 43.2% | 80.1% | 91.8% | CSc1cc(C)[nH]c(=O)c1CNC(=O)c1cc(-c2cnc(N3CCSCC3)nc2)c2c(c1C)OC(C)(C1CCN(CC(F)(F)F)CC1)O2 (stereo not drawn) [Compound 92, 2,4-dimethyl-N-((6-methyl-4-(methylthio)-2-oxo-1,2-dihydropyridin-3-yl)methyl)-7-(2-thiomorpholinopyrimidin-5-yl)-2-(1-(2,2,2-trifluoroethyl)piperidin-4-yl)benzo[d][1,3]dioxole-5-carboxamide] | ≤ 30% | ≥ 70% | ≤ 30% | ≥ 70% | ≤ 30% | 30 to 70%
16.8% | 12.7% | 32.2% | 37.9% | CSc1cc(C)[nH]c(=O)c1CNC(=O)c1cc(-c2ccc3c(c2)OC(F)(F)O3)c2c(c1C)OC(C)(C1CCN(CC(F)(F)F)CC1)O2 (stereo not drawn) [Compound 93, 2',2'-difluoro-2,7-dimethyl-N-((6-methyl-4-(methylthio)-2-oxo-1,2-dihydropyridin-3-yl)methyl)-2-(1-(2,2,2-trifluoroethyl)piperidin-4-yl)-[4,5'-bibenzo[d][1,3]dioxole]-6-carboxamide] | ≤ 30% | ≤ 30% | ≤ 30% | ≥ 70% | 30 to 70% | ≤ 30%
25.3% | 28.5% | 65.1% | 82% | CSc1cc(C)[nH]c(=O)c1CNC(=O)c1cc(-c2ccc3c(c2)OCO3)c2c(c1C)OC(C)(C1CCN(CC(F)(F)F)CC1)O2 (stereo not drawn) [Compound 94, 2,7-dimethyl-N-((6-methyl-4-(methylthio)-2-oxo-1,2-dihydropyridin-3-yl)methyl)-2-(1-(2,2,2-trifluoroethyl)piperidin-4-yl)-[4,5'-bibenzo[d][1,3]dioxole]-6-carboxamide] | ≤ 30% | ≤ 30% | ≤ 30% | ≥ 70% | ≤ 30% | ≤ 30%
38.1% | 46% | 83.2% | 91.1% | CSc1cc(C)[nH]c(=O)c1CNC(=O)c1cc(-c2ccc3c(c2)OCO3)c2c(c1C)OC(C)(C1CCN(CC(F)F)CC1)O2 (stereo not drawn) [Compound 95, 2-(1-(2,2-difluoroethyl)piperidin-4-yl)-2,7-dimethyl-N-((6-methyl-4-(methylthio)-2-oxo-1,2-dihydropyridin-3-yl)methyl)-[4,5'-bibenzo[d][1,3]dioxole]-6-carboxamide] | ≤ 30% | ≥ 70% | ≤ 30% | ≥ 70% | ≤ 30% | 30 to 70%
19.2% | 14.8% | 58.4% | 78% | CSc1cc(C)[nH]c(=O)c1CNC(=O)c1cc(-c2ccc3occc3c2)c2c(c1C)OC(C)(C1CCN(CC(F)(F)F)CC1)O2 (stereo not drawn) [Compound 96, 7-(benzofuran-5-yl)-2,4-dimethyl-N-((6-methyl-4-(methylthio)-2-oxo-1,2-dihydropyridin-3-yl)methyl)-2-(1-(2,2,2-trifluoroethyl)piperidin-4-yl)benzo[d][1,3]dioxole-5-carboxamide] | ≤ 30% | ≤ 30% | ≤ 30% | ≥ 70% | ≤ 30% | ≤ 30%
25.9% | 20.5% | 74.7% | 82.3% | CSc1cc(C)[nH]c(=O)c1CNC(=O)c1cc(-c2ccc3occc3c2)c2c(c1C)OC(C)(C1CCN(CC(F)F)CC1)O2 (stereo not drawn) [Compound 97, 7-(benzofuran-5-yl)-2-(1-(2,2-difluoroethyl)piperidin-4-yl)-2,4-dimethyl-N-((6-methyl-4-(methylthio)-2-oxo-1,2-dihydropyridin-3-yl)methyl)benzo[d][1,3]dioxole-5-carboxamide] | ≤ 30% | 30 to 70% | ≤ 30% | ≥ 70% | ≤ 30% | 30 to 70%
30.9% | 17.6% | 52.2% | 48.9% | CCCCN(C)c1ccc(-c2cc(C(=O)NCc3c(SC)cc(C)[nH]c3=O)c(C)c3c2OC(C)(C2CCN(CC(F)(F)F)CC2)O3)cn1 (stereo not drawn) [Compound 98, 7-(6-(butyl(methyl)amino)pyridin-3-yl)-2,4-dimethyl-N-((6-methyl-4-(methylthio)-2-oxo-1,2-dihydropyridin-3-yl)methyl)-2-(1-(2,2,2-trifluoroethyl)piperidin-4-yl)benzo[d][1,3]dioxole-5-carboxamide] | ≤ 30% | 30 to 70% | ≤ 30% | ≥ 70% | ≤ 30% | 30 to 70%
37.1% | 42.9% | 62.4% | 76.5% | CCCCN(C)c1ncc(-c2cc(C(=O)NCc3c(SC)cc(C)[nH]c3=O)c(C)c3c2OC(C)(C2CCN(CC(F)(F)F)CC2)O3)cn1 (stereo not drawn) [Compound 99] | ≤ 30% | 30 to 70% | ≤ 30% | ≥ 70% | 30 to 70% | 30 to 70%
